These results are taken from ChEMBL document CHEMBL1201862, “PubChem BioAssay data set” (2004).

Test systems include 786-0; COLO 205; EKVX; HCT-15; LXFL 529; OVCAR-5; RPMI-8226; SF-295; SF-539; SK-OV-3; SNB-75; TK-10; U-251; UO-31; NCI-H522; DU-145; Hs-578T; MCF7; PC-3; T47D.
What all share (assay): DTP human tumour cell line panel, 48 h

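48-hour exposure; five concentrations; linearly interpolated endpoints. GI50 marks 50% less growth.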 The source made the active and inactive calls. Cut-off read from the data, not from the text of the source: active = GI50 up to about 1.1 µM and inactive = higher.

Regarding `O=C(O)c1ccccc1NC(=O)C1CCCCC1`, the GI50 (commonly the concentration at which growth is held to half of that of the control) in the experiment with 786-0 was > 100 µM (inactive); in the experiment with COLO 205, > 100 µM (inactive); in the experiment with EKVX it was > 100 µM (inactive); in the experiment on HCT-15, over 100 µM; with LXFL 529, > 100 µM (inactive); in the experiment on OVCAR-5, > 100 µM (inactive). The GI50 in the experiment on RPMI-8226, in the experiment with SF-295, with SF-539, in the experiment with SK-OV-3, with SNB-75 and in the experiment on TK-10 was > 100 µM (inactive) each time. The GI50 in the experiment on U-251 and with UO-31 was > 100 µM (inactive) throughout.

Consider `COc1ccc2cc(C(=O)c3ccccc3C(=O)O)ccc2c1`, for which the GI50 is > 100 µM (inactive) in the experiment with 786-0; > 100 µM (inactive) in the experiment on COLO 205; > 100 µM (inactive) in the experiment on EKVX; over 100 µM in the experiment with HCT-15; > 100 µM (inactive) in the experiment on LXFL 529; > 100 µM (inactive) with NCI-H522. Besides, the GI50 in the experiment with OVCAR-5, with SF-295, in the experiment with SK-OV-3, in the experiment with SNB-75, in the experiment with TK-10 and in the experiment on U-251 was > 100 µM (inactive) in each case. In the experiment on UO-31, the GI50 was > 100 µM (inactive).

Take `Cn1ccnc1CCc1ccc(Cl)c(Cl)c1`: the GI50 with 786-0 was > 100 µM (inactive); with COLO 205, > 100 µM (inactive); in the experiment on HCT-15, over 100 µM; in the experiment with LXFL 529, > 100 µM (inactive); in the experiment on NCI-H522, > 100 µM (inactive); in the experiment on OVCAR-5, > 100 µM (inactive). Besides, the GI50 is > 100 µM (inactive) in the experiment with RPMI-8226; > 100 µM (inactive) in the experiment on SF-295; > 100 µM (inactive) in the experiment with SF-539; > 100 µM (inactive) in the experiment with SK-OV-3; 37.3 µM (inactive) in the experiment on SNB-75; > 100 µM (inactive) in the experiment on TK-10. Besides, the GI50 is > 100 µM (inactive) with U-251 and 50.5 µM (inactive) with UO-31.

Regarding `CN[C@@H](C)[C@H](NC)c1ccccc1`, the GI50 in the experiment with 786-0 was > 100 µM (inactive); in the experiment with COLO 205 it was > 100 µM (inactive); with EKVX, > 100 µM (inactive); in the experiment with HCT-15 it was 33.3 µM; with LXFL 529, > 100 µM (inactive); in the experiment on NCI-H522 it was > 100 µM (inactive). Further, the GI50 in the experiment with RPMI-8226, in the experiment on SF-295, in the experiment on SF-539, in the experiment on SK-OV-3, in the experiment on SNB-75 and in the experiment with TK-10 was > 100 µM (inactive) in each case. In addition, the GI50 with U-251 and in the experiment with UO-31 was > 100 µM (inactive) in each case.

Take `COC(=O)C(C(=O)C(=O)Nc1c(C)cccc1C)c1cnc2ccccc2n1` (configuration not stated): the GI50 with 786-0 is > 100 µM (inactive); in the experiment on COLO 205 it was > 100 µM (inactive); with EKVX it was > 100 µM (inactive); with HCT-15 it was over 100 µM; with LXFL 529 it was > 100 µM (inactive); in the experiment with NCI-H522, > 100 µM (inactive). The GI50 in the experiment on OVCAR-5, in the experiment on RPMI-8226, in the experiment with SF-295, with SK-OV-3, with SNB-75 and in the experiment on TK-10 was > 100 µM (inactive) in each case. For the same molecule, the GI50 in the experiment with U-251 and with UO-31 was > 100 µM (inactive) in each case.

On to `CCc1cccc(C)c1NC(=O)CC(=O)NNC(N)=S`, for which the GI50 in the experiment with 786-0 is > 100 µM (inactive); in the experiment on COLO 205, > 100 µM (inactive); in the experiment on EKVX, > 100 µM (inactive); with HCT-15, over 100 µM; in the experiment on LXFL 529, > 100 µM (inactive); in the experiment on NCI-H522, > 100 µM (inactive). Also, the GI50 in the experiment on OVCAR-5, in the experiment on RPMI-8226, with SF-295, in the experiment on SK-OV-3, in the experiment on SNB-75 and in the experiment on TK-10 was > 100 µM (inactive) in each case. Further, the GI50 in the experiment with U-251 and in the experiment on UO-31 was > 100 µM (inactive) in each case.

For `CN(C)c1ccc2c(=O)c3ccccc3oc2n1`, the GI50 in the experiment on 786-0 is > 100 µM (inactive); with COLO 205, > 100 µM (inactive); with EKVX, 35 µM (inactive); in the experiment with HCT-15, over 100 µM; with LXFL 529, 84.3 µM (inactive); in the experiment on NCI-H522 it was > 100 µM (inactive). Further, the GI50 in the experiment with OVCAR-5, in the experiment with RPMI-8226, in the experiment on SF-295, with SK-OV-3, with SNB-75 and in the experiment on TK-10 was > 100 µM (inactive) throughout. The GI50 with UO-31 is 69.2 µM (inactive).

In the case of `COc1ccc(NC(=O)C(=O)Cc2nc3ccc([N+](=O)[O-])cc3nc2O)c(OC)c1`, the GI50 in the experiment on 786-0 is > 100 µM (inactive); in the experiment on COLO 205 it was > 100 µM (inactive); in the experiment on EKVX, > 100 µM (inactive); with HCT-15, over 100 µM; in the experiment with LXFL 529, > 100 µM (inactive); in the experiment on NCI-H522, 83.4 µM (inactive). Also, the GI50 in the experiment with OVCAR-5, with SF-295, with SF-539, in the experiment on SK-OV-3, in the experiment with SNB-75 and in the experiment with TK-10 was > 100 µM (inactive) each time. In addition, in the experiment with UO-31, the GI50 is > 100 µM (inactive).

As for `CN(C)c1ccc(/C=C2\CNC/C(=C\c3ccc(N(C)C)cc3)C2=O)cc1`, the GI50 with 786-0 was 16.8 µM (inactive); with COLO 205, 45.1 µM (inactive); in the experiment with EKVX, > 100 µM (inactive); in the experiment with HCT-15, 4.46 µM; with LXFL 529, 37.4 µM (inactive); with OVCAR-5 it was > 100 µM (inactive). The GI50 in the experiment on RPMI-8226 was 54.6 µM (inactive); with SF-295, 76.4 µM (inactive); with SF-539, 59.2 µM (inactive); in the experiment with SK-OV-3 it was > 100 µM (inactive); in the experiment on SNB-75, 11.1 µM (inactive); in the experiment on TK-10 it was 33.3 µM (inactive). Also, the GI50 with U-251 is 14.4 µM (inactive); in the experiment with UO-31, 36.2 µM (inactive).

On to `O=Nc1c(-c2c(O)[nH]c3ccccc23)[nH]c2ccccc12` [INDIRUBIN-3-MONOXIME], for which the GI50 in the experiment on 786-0 was 7.57 µM (inactive); in the experiment on COLO 205, 12.5 µM (inactive); with DU-145, 2.63 µM (inactive); in the experiment with EKVX it was 1.9 µM (inactive); with HCT-15, 2.48 µM; with Hs-578T it was 4.47 µM (inactive). Moreover, the GI50 is 3.13 µM (inactive) with MCF7; 3.48 µM (inactive) in the experiment with NCI-H522; 7.26 µM (inactive) in the experiment on OVCAR-5; 3.72 µM (inactive) with PC-3; 3.95 µM (inactive) in the experiment on RPMI-8226; 10.1 µM (inactive) with SF-295. Moreover, the GI50 with SF-539 was 20 µM (inactive); in the experiment with SK-OV-3, 1.56 µM (inactive); with SNB-75, 3.88 µM (inactive); with T47D, 4.3 µM (inactive); with TK-10, 5.79 µM (inactive); in the experiment with U-251, 6.97 µM (inactive). Further, the GI50 with UO-31 was 2.38 µM (inactive).
